Counter-ions that a name gives are not always drawn.
Experiments:
[1] = tested on: muscarinic receptors (rabbit lung tissue); assay type: binding, rabbit (New Zealand White); settings: 0.1 nM [3H]QNB, 37° C., 60 min, pH 7.4
[2] = tested on: bethanechol-contracted rabbit bladder strips; assay: relaxation of bethanechol-contracted rabbit urinary bladder strip (organ bath); assay type: cell-based; settings: 250 μM bethanechol; for inhibition at 100 µM / inhibition at 10 µM / inhibition at 1 µM / inhibition at 0.1 µM / inhibition at 0.01 µM: Oryctolagus cuniculus, maximal relaxation = pre-bethanechol tone, read-out: % of maximum relaxation
Experimental: The pharmacological actions of two anti-spasmodic compounds were studied in a rabbit urinary bladder strip preparation. In general, longitudinal strips were prepared from the base of freshly isolated rabbit bladders and were then suspended under near-physiological conditions in tissue baths. The strips were attached to force transducers and both contractile and relaxant activity was measured. To measure the relaxant effects on the anti-spasmodic compounds on previously-contracted bladder strips, the strips were initially exposed to the muscarinic receptor agonist bethanechol and allowed to reach a steady level of contractile activity for 20 minutes. At this point cumulative dose-responses to the various compounds were recorded. The rabbit abdomens were opened through a vertical midline incision. The bladder and urethra were dissected free of all surrounding tissues, removed and placed in aerated (95% O2 :5% CO2) Kreb's-bicarbonate buffer (pH: 7.4) of the following composition ([…]): KCl 4.6, CaCl2.2H2 O 2.5, KH2 PO4 1.2, MgSO4.7H2 O 1.2, NaCl 118.2, NaHCO3 24.8, and glucose 10.0. Longitudinal muscle strips were prepared from the bladder base (approximately 6 mm×4 mm) and suspended in an organ bath containing Kreb's buffer (37° C.) which was continuously aerated with O2 :CO2 (95%:5%). Tissues were allowed to equilibrate to a tension of 2 gm for sixty minutes during which time buffer was replaced at 20 minute intervals. The contractile and relaxant responses of the muscle strips were measured isometrically with a Statham UC3 force-displacement transducer and recorded on an Electronics for Medicine DR8 oscillographic recorder. Bethanechol was employed as the representative cholinergic agonist and, following equilibration, was added to the baths for a final concentration of 250 μM. The tissues were allowed 20 minute to achieve a maintained level of contraction in response to bethanechol and, at this point, cumulative dose-response measurements for two anti-spasmodic compounds were started at concentrations ranging from 10^-8 M to 10^-4 M. Solutions were added in volumes up to 100 μl and were prepared fresh each day by dissolving them in distilled: deionzed water. Responses were measured 5 minutes following any particular cumulative addition and were expressed as a percentage of maximal relaxation (e.g. maximal relaxation is the baseline or pre-bethanechol level of muscle tone).
Dose responses, measured from the standard bethanechol-contracted rabbit bladder strips, at various concentrations of 2-ethyl-butyrol-thio-S-(2-diethylaminoethyl)-ester [CH3 CH2)2 --CH--CO--S--(CH2)2 --N--(CH2 CH3)2.HCl], are presented in Table I:
Dose responses, measured from the standard bethanechol-contracted rabbit bladder strips, at various concentrations of 2-propyl-pentanoyl-thiol-S-(2-diethylaminoethyl)-ester.HCl [(CH3 CH2 CH2)2 --CH--CO--S--(CH2)2 --N--(CH2 CH3)2.HCl] are presented in Table II: […]

[3] = tested on: salivary and sweat glands, GI glands, the eye or the cardiovascular system; settings: cited from earlier work
[4] = tested on: smooth muscle (gastrointestinal tract, biliary tract, ureter and uterus); settings: cited from earlier work

Compound	% inhibition of 3H[QNB] binding (at a concentration of 1.0 × 10^-5 M) [1]	Decrease in force of contraction of rabbit bladder strip ([2]; 10^-4 moles/liter)	Increase in length of rabbit bladder strip ([2]; 10^-4 moles/liter)	Decrease in force of contraction of rabbit bladder strip ([2]; 10^-5 moles/liter)	Increase in length of rabbit bladder strip ([2]; 10^-5 moles/liter)	Decrease in force of contraction of rabbit bladder strip ([2]; 10^-6 moles/liter)	Increase in length of rabbit bladder strip ([2]; 10^-6 moles/liter)	Decrease in force of contraction of rabbit bladder strip ([2]; 10^-7 moles/liter)	Increase in length of rabbit bladder strip ([2]; 10^-7 moles/liter)	Decrease in force of contraction of rabbit bladder strip ([2]; 10^-8 moles/liter)	Increase in length of rabbit bladder strip ([2]; 10^-8 moles/liter)	inhibition at 100 µM ([2]; 10^-4 moles/liter)	inhibition at 10 µM ([2]; 10^-5 moles/liter)	inhibition at 1 µM ([2]; 10^-6 moles/liter)	inhibition at 0.1 µM ([2]; 10^-7 moles/liter)	inhibition at 0.01 µM ([2]; 10^-8 moles/liter)	characteristic atropinic side effects [3]	decrease of spasm [4]
CCCC(CCC)C(=O)SCCN(CC)CC [2-propyl-pentanoyl-thio-S-(2-diethylaminoethyl)-ester.HCl]	95%	0.81 gm	2.9 cm	0.31 gm	1.1 cm	0.0 gm	0.0 cm	0.0 gm	0.0 cm	0.0 gm	0.0 cm	100%	100%	0%	0%	0%		
CCC(CC)C(=O)SCCN(CC)CC [2-ethyl-butyryl-thio-S-(2-diethylaminoethyl)ester.HCl]	64%	0.54 gm	1.3 cm	0.29 gm	0.7 cm	0.25 gm	0.6 cm	0.17 gm	0.4 cm	0.13 gm	0.3 cm	37%	20%	17.1%	11.4%	8.6%		
CCN(CC)CCSC(=O)C(c1ccccc1)c1ccccc1 [Thiphenamil hydrochloride]																	without producing characteristic atropinic side effects on salivary and sweat glands, GI glands, the eye or the cardiovascular system	decrease spasm of the gastrointestinal tract, biliary tract, ureter and uterus
